Legend:
Test in all cases: Ba/F3 drug screening, Cell Titer Glo, IC50 Mut/WT
Format in all cases: cell-based
EGFR L858R = target: T1, EGFR L858R (Homo sapiens, UniProt P00533, L858R); conditions: Classical-Like, 72 hours
T1 construct: expressed in transfected cells; host or cells: Ba/F3 cells, retroviral pBabe-Puro vector

EGFR K754E = target: T2, EGFR K754E (Homo sapiens, UniProt P00533, K754E); conditions: Classical-Like, 72 hours
T2 construct: expressed in transfected cells; host or cells: Ba/F3 cells, retroviral pBabe-Puro vector

EGFR A767insASV = target: T3, EGFR A767insASV (Homo sapiens, UniProt P00533, DUP767-769); conditions: Ex20, 72 hours
T3 construct: expressed in transfected cells; host or cells: Ba/F3 cells, retroviral pBabe-Puro vector

EGFR G719A T790M = target: T4, EGFR G719A T790M (Homo sapiens, UniProt P00533, G719A/T790M); conditions: T790M-like-3S, 72 hours
T4 construct: expressed in transfected cells; host or cells: Ba/F3

EGFR S768I/T790M = target: T5, EGFR S768I/T790M (Homo sapiens, UniProt P00533, S768I/T790M); conditions: T790M-like-3S, 72 hours
T5 construct: expressed in transfected cells; host or cells: Ba/F3

EGFR G724S T790M = target: T6, EGFR G724S T790M (Homo sapiens, UniProt P00533, G724S/T790M); conditions: T790M-like-3R, 72 hours
T6 construct: expressed in transfected cells; host or cells: Ba/F3

EGFR L858R T790M L718V = target: T7, EGFR L858R T790M L718V (Homo sapiens, UniProt P00533, L718V/L858R/T790M); conditions: T790M-like-3R, 72 hours
T7 construct: expressed in transfected cells; host or cells: Ba/F3

EGFR Ex19del T790M C797S = target: T8, EGFR Ex19del T790M C797S (Homo sapiens, UniProt P00533, C797S/DEL746-750/T790M); conditions: T790M-like-3R, 72 hours
T8 construct: expressed in transfected cells; host or cells: Ba/F3

EGFR E709_T710del insD = target: T9, EGFR E709_T710del insD (Homo sapiens, UniProt P00533, DEL709-709/T710D); conditions: PACC; E709_T710del insD; Ba/F3; 72 hours
T9 construct: expressed in transfected cells; host or cells: Ba/F3

EGFR E709K G719S = target: T10, EGFR E709K G719S (Homo sapiens, UniProt P00533, E709K/G719S); conditions: PACC; E709K G719S; Ba/F3; 72 hours
T10 construct: expressed in transfected cells; host or cells: Ba/F3

EGFR G719A = target: T11, EGFR G719A (Homo sapiens, UniProt P00533, G719A); conditions: PACC; G719A; Ba/F3; 72 hours
T11 construct: expressed in transfected cells; host or cells: Ba/F3

EGFR G724S = target: T12, EGFR G724S (Homo sapiens, UniProt P00533, G724S); conditions: PACC; G724S; Ba/F3; 72 hours
T12 construct: expressed in transfected cells; host or cells: Ba/F3

EGFR I740dupIPVAK = conditions: PACC; I740dupIPVAK; Ba/F3; 72 hours
EGFR L747S = target: T13, EGFR L747S (Homo sapiens, UniProt P00533, L747S); conditions: PACC; L747S; Ba/F3; 72 hours
T13 construct: expressed in transfected cells; host or cells: Ba/F3

EGFR S768I = target: T14, EGFR S768I (Homo sapiens, UniProt P00533, S768I); conditions: PACC; S768I; Ba/F3; 72 hours
T14 construct: expressed in transfected cells; host or cells: Ba/F3

EGFR V769L = target: T15, EGFR V769L (Homo sapiens, UniProt P00533, V769L); conditions: PACC; V769L; Ba/F3; 72 hours
T15 construct: expressed in transfected cells; host or cells: Ba/F3

EGFR V774M = target: T16, EGFR V774M (Homo sapiens, UniProt P00533, V774M); conditions: PACC; V774M; Ba/F3; 72 hours
T16 construct: host or cells: Ba/F3

EGFR R776C = target: T17, EGFR R776C (Homo sapiens, UniProt P00533, R776C); conditions: PACC; R776C; Ba/F3; 72 hours
T17 construct: host or cells: Ba/F3

EGFR Ex19del G724S = target: T18, EGFR Ex19del G724S (Homo sapiens, UniProt P00533, DEL746-750/G724S); conditions: PACC; Ex19del G724S; Ba/F3; 72 hours
T18 construct: expressed in transfected cells; host or cells: Ba/F3

EGFR L858R/L792H = target: T19, EGFR L858R/L792H (Homo sapiens, UniProt P00533, L792H/L858R); conditions: PACC; L858R/L792H; Ba/F3; 72 hours
T19 construct: expressed in transfected cells; host or cells: Ba/F3

EGFR Ex19del G796S = target: T20, EGFR Ex19del G796S (Homo sapiens, UniProt P00533, DEL746-750/G796S); conditions: PACC; Ex19del G796S; Ba/F3; 72 hours
T20 construct: expressed in transfected cells; host or cells: Ba/F3

EGFR Ex19del/C797S = target: T21, EGFR Ex19del/C797S (Homo sapiens, UniProt P00533, C797S/DEL746-750); conditions: PACC; Ex19del/C797S; Ba/F3; 72 hours
T21 construct: expressed in transfected cells; host or cells: Ba/F3

EGFR Ex19del L718V = target: T22, EGFR Ex19del L718V (Homo sapiens, UniProt P00533, DEL746-750/L718V); conditions: PACC; Ex19del L718V; Ba/F3; 72 hours
T22 construct: expressed in transfected cells; host or cells: Ba/F3

EGFR Ex19del L718Q = target: T23, EGFR Ex19del L718Q (Homo sapiens, UniProt P00533, DEL746-750/L718Q); conditions: PACC; Ex19del L718Q; Ba/F3; 72 hours
T23 construct: expressed in transfected cells; host or cells: Ba/F3

EGFR L858R G724S = target: T24, EGFR L858R G724S (Homo sapiens, UniProt P00533, G724S/L858R); conditions: PACC; L858R G724S; Ba/F3; 72 hours
T24 construct: expressed in transfected cells; host or cells: Ba/F3 (retroviral transduction, pBabe-Puro based vectors)

EGFR Ex19del T854I = target: T25, EGFR Ex19del T854I (Homo sapiens, UniProt P00533, DEL746-750/T854I); conditions: PACC; Ex19del T854I; Ba/F3; 72 hours
T25 construct: expressed in transfected cells; host or cells: Ba/F3 (retroviral transduction, pBabe-Puro based vectors)

`CNC(=O)CN1CCC(Oc2cc3c(Nc4cccc(Cl)c4F)ncnc3cc2OC)CC1` [Sapatinib] was tested, and the “ratio of IC50 for cells with mutant EGFR to IC50 for cells with wildtype EGFR (Mut/WT)” value (“ratio of IC50 for cells with mutant EGFR” for short) (EGFR L858R) was 0.0006817, the “ratio of IC50 for cells with mutant EGFR” value (EGFR K754E) was 0.00307 and the “ratio of IC50 for cells with mutant EGFR” value (EGFR A767insASV) was 2.233. The “ratio of IC50 for cells with mutant EGFR” value (EGFR G719A T790M) was 54.78, the “ratio of IC50 for cells with mutant EGFR” value (EGFR S768I/T790M) was 54.78 and the “ratio of IC50 for cells with mutant EGFR” value (EGFR G724S T790M) was 48.62. The “ratio of IC50 for cells with mutant EGFR” value (EGFR L858R T790M L718V) was 41.48, the “ratio of IC50 for cells with mutant EGFR” value (EGFR Ex19del T790M C797S) was 17.13 and the “ratio of IC50 for cells with mutant EGFR” value (EGFR E709_T710del insD) was 1.754. For the same compound, the “ratio of IC50 for cells with mutant EGFR” value (EGFR E709K G719S) was 0.01102, the “ratio of IC50 for cells with mutant EGFR” value (EGFR G719A) was 0.01264 and the “ratio of IC50 for cells with mutant EGFR” value (EGFR G724S) was 0.141. The “ratio of IC50 for cells with mutant EGFR” value (EGFR I740dupIPVAK) was 0.008351, the “ratio of IC50 for cells with mutant EGFR” value (EGFR L747S) was 0.005189 and the “ratio of IC50 for cells with mutant EGFR” value (EGFR S768I) was 0.1883. For the same compound, the “ratio of IC50 for cells with mutant EGFR” value (EGFR V769L) was 0.1992, the “ratio of IC50 for cells with mutant EGFR” value (EGFR V774M) was 0.05575 and the “ratio of IC50 for cells with mutant EGFR” value (EGFR R776C) was 0.02012. For the same compound, the “ratio of IC50 for cells with mutant EGFR” value (EGFR Ex19del G724S) was 27.39, the “ratio of IC50 for cells with mutant EGFR” value (EGFR L858R/L792H) was 0.01237 and the “ratio of IC50 for cells with mutant EGFR” value (EGFR Ex19del G796S) was 3.423. The “ratio of IC50 for cells with mutant EGFR” value (EGFR Ex19del/C797S) was 0.0006085, the “ratio of IC50 for cells with mutant EGFR” value (EGFR Ex19del L718V) was 0.08016 and the “ratio of IC50 for cells with mutant EGFR” value (EGFR Ex19del L718Q) was 0.7162. The “ratio of IC50 for cells with mutant EGFR” value (EGFR L858R G724S) was 0.0004959 and the “ratio of IC50 for cells with mutant EGFR” value (EGFR Ex19del T854I) was 0.2548.

From patent publication US20240384350A1, “METHODS OF TREATING CANCER WITH KINASE INHIBITORS” (BOARD OF REGENTS, THE UNIVERSITY OF TEXAS SYSTEM, priority 2021, published 2024)
